“Also recorded” adds a separate entry of the source.
Tests used:
[1] = system: fungal biofilm (C. albicans); assay: Fungal biofilm inhibition assay; format: cell-based, Candida albicans
Procedure: (§1) Two types of biofilm assays were performed: an inhibition assay and a disruption assay. The inhibition assay assesses the compound's ability to prevent biofilm development, while the disruption assay assesses the compound's ability to break up an existing mature biofilm.
(§2) All bacterial biofilm solutions were prepared in Tryptic Soy Broth (TSB), supplemented with 1% glucose (henceforth referred to as TSB-G). All subsequent procedures were performed in a manner that maintained sterility. A solution of each amino acid or an amino acid derivative to be tested was prepared in weight to volume concentrations ranging from 0.1-5.0%. Amino acids and amino acid derivatives were also tested in combinations. Compound solutions were homogenized with gentle agitation in the dark (4° C., 24 hours) before use.
(§3) 32 Amino acids and 2 amino acid derivatives of the amino acid serine that occur freely in human blood were tested. […] 31 of the 32 amino acids that were tested were the L-Isomers. Glycine has no stereoisomers. The 2 amino acid derivatives, ethanolamine and phosphoethanolamine were also tested. All biofilm assays were performed using 384-well non-tissue culture-treated polystyrene plates. The fungal species tested are as follows: Candida albicans, Candida guilliermondii, Candida parapsilosis, Candida glabrata, Candida tropicalis and Candida dubliniensis. The bacterial species tested are as follows: Staphylococci (standard wild type and methicillin-resistant strain USA300), Escherichia coli, Pseudomonas aeruginosa and Staphylococcus epidermidis.
(§4) Fungal strains were streaked on Yeast Peptone Dextrose (YPD) agar plates and incubated at 30° C. for 48 hours. A single colony from each strain to be tested was inoculated into YPD broth and grown for 12 hours at 30° C., shaking at 225 rpm. […] The cells were allowed to adhere to the plate for 90 minutes at 37° C. with shaking (350 rpm). […] The plate was further incubated for 24 hours at 37° C. with shaking (350 rpm). Media was carefully aspirated and the biofilm was measured by optical density at 600 nm. […] The cells were allowed to adhere to the plate for 90 minutes at 37° C. with shaking (350 rpm). […] The plate was further incubated for 24 hours at 37° C. with shaking (350 rpm). […] The plate was further incubated for 24 hours at 37° C. with shaking (350 rpm). Media was carefully aspirated, and the biofilm was measured by optical density at 600 nm.

[2] = system: fungal biofilm (C. albicans); assay: Fungal biofilm disruption assay; format: cell-based, Candida albicans
Procedure: as §1, §2, §3, §4

[3] = system: bacterial (S. aureus) biofilm; assay: Bacterial biofilm disruption assay; format: cell-based, Staphylococcus aureus
Procedure: as §1, §2, §3
(§5) Bacterial strains were streaked on Blood Agar plates (5% sheep blood in Tryptic Soy Broth) and incubated at 37° C. for 24 hours. A single colony from each strain to be tested was inoculated in a TSB broth and grown for 12 hours, at 37° C. with shaking (225 rpm). For the bacterial biofilm inhibition assays, 1 μL of saturated overnight cell culture was added to either 80 μL of TSB-G, or TSB-G supplemented with the amino acid compound solution to be tested, in a 384-well plate. The cells were allowed to adhere to the plate for 60 minutes at 37° C. without shaking. The media was carefully aspirated and 80 μL of TSB-G, or TSB-G supplemented with the amino acid compound solution was added to the plate. The plate was further incubated for 24 hours at 37° C. without shaking. Media was carefully aspirated and the biofilm was measured by optical density at 600 nm. Eight or twelve replicates were performed for each tested condition and the reported values are normalized to the control (TSB-G media only). For the bacterial biofilm disruption assays, 80 µL of TSB-G was added to the plate, along with 1 μL of overnight cell culture. The cells were allowed to adhere to the plate for 60 minutes at 37° C. with no shaking. The media was carefully aspirated and 80 μL of TSB-G was added to the plate. The plate was further incubated for 24 hours at 37° C. with no shaking. Media was carefully aspirated from the mature biofilm and 80 μL of TSB-G, or TSB-G supplemented with the amino acid to be tested, was gently added to the plate. The plate was further incubated for 24 hours at 37° C. without shaking. Media was aspirated and the biofilm was measured by optical density at 600 nm. Twelve replicates were performed for each tested condition and the reported values are normalized to the control (TSB-G media only).

bacterial biofilm = assay: In vitro testing on bacterial biofilm (inhibition and/or disruption); format: cell-based
Procedure: as §1, §2, §3, §5

fungal biofilm = assay: In vitro testing on fungal biofilm (inhibition and/or disruption); format: cell-based
Procedure: as §1, §2, §3, §4

[4] = system: bacterial (S. aureus) biofilm; assay: Bacterial biofilm inhibition assay; format: cell-based, Staphylococcus aureus
Procedure: as §1, §2, §3, §5

[5] = system: bacterial (S. aureus) biofilm and fungal biofilm (C. albicans); assay: Biofilm inhibition assay, bacterial and fungal taken together; format: cell-based; conditions: symbol marks the assay
Procedure: as §1, §2, §3, §4
as §5, with “plate.” for “plate. The plate was further incubated for 24 hours at 37° C. without shaking. Media was aspirated and the biofilm was measured by optical density at 600 nm. Twelve replicates were performed for each tested condition and the reported values are normalized to the control (TSB-G media only).”

[6] = Table E, in the absence of an infusion of glycerol
[7] = Table F, in the presence of a sufficient concentration of glycerol
[8] = in the presence of a therapeutic concentration of glycerol

Structure (SMILES): Cn1cncc1C[C@H](N)C(=O)O [3-Methylhistidine, 3-methyl-L-histidine]
- Promote F Biofilm (squares: Inhibition Biofilm Assay) ([1]; Table D, 0.1 to 5.0%): ▪ (Single square [ie. ▪] signifies little effect on the Inhibition Biofilm Assay (from about 10 to less than 30%))
- Promote F Biofilm (squares: Inhibition Biofilm Assay) [1, 6]: ▪ (Single square [ie. ▪] signifies little effect on the Inhibition Biofilm Assay (from about 10 to less than 30%))
- Promote F Biofilm (dots: Disruption Biofilm Assay) ([2]; Table D, 0.1 to 5.0%): ● (Single dot [ie. ●] signifies little effect on the Disruption Biofilm Assay (from about 10 to less than 30%))
- Promote F Biofilm (dots: Disruption Biofilm Assay) [2, 6]: ● (Single dot [ie. ●] signifies little effect on the Disruption Biofilm Assay (from about 10 to less than 30%))
- Reduce or Inhibit B Biofilm (dots: Disruption Biofilm Assay) ([3]; Table D, 0.1 to 5.0%): ● (Single dot [ie. ●] signifies little effect on the Disruption Biofilm Assay (from about 10 to less than 30%))
- Reduce or Inhibit B Biofilm (dots: Disruption Biofilm Assay) [3, 7]: ● (Single dot [ie. ●] signifies little effect on the Disruption Biofilm Assay (from about 10 to less than 30%))
- effect on bacterial biofilm (in words) (bacterial biofilm; in vitro testing): antibacterial biofilm effect
- effect on fungal biofilm (in words) (fungal biofilm; in vitro testing): promoted fungal biofilm formation

Structure (SMILES): NCCO [Ethanolamine, ethanolamine]
- Reduce or Inhibit F Biofilm (squares: Inhibition Biofilm Assay) ([1]; Table D, 0.1 to 5.0%): ▪ (Single square [ie. ▪] signifies little effect on the Inhibition Biofilm Assay (from about 10 to less than 30%))
- Reduce or Inhibit F Biofilm (squares: Inhibition Biofilm Assay) [1, 7]: ▪ (Single square [ie. ▪] signifies little effect on the Inhibition Biofilm Assay (from about 10 to less than 30%))
- effect on fungal biofilm (in words) (fungal biofilm; in vitro testing): antifungal biofilm effect

Structure (SMILES): N[C@@H](CCS)C(=O)O [Homocysteine, L-homocysteine]
- effect on fungal biofilm (in words) (fungal biofilm; in vitro testing): antifungal biofilm effects

Structure (SMILES): O=C(O)[C@@H]1C[C@@H](O)CN1 [Hydroxyproline, Trans-4-hydroxy-L-proline]
- Reduce or Inhibit F Biofilm (squares: Inhibition Biofilm Assay) ([1]; Table D, 0.1 to 5.0%): ▪ (Single square [ie. ▪] signifies little effect on the Inhibition Biofilm Assay (from about 10 to less than 30%))
- Reduce or Inhibit F Biofilm (squares: Inhibition Biofilm Assay) [1, 7]: ▪ (Single square [ie. ▪] signifies little effect on the Inhibition Biofilm Assay (from about 10 to less than 30%))
- Reduce or Inhibit B Biofilm (squares: Inhibition Biofilm Assay) ([4]; Table D, 0.1 to 5.0%): ▪ (Single square [ie. ▪] signifies little effect on the Inhibition Biofilm Assay (from about 10 to less than 30%))
- Reduce or Inhibit B Biofilm (squares: Inhibition Biofilm Assay) [4, 7]: ▪ (Single square [ie. ▪] signifies little effect on the Inhibition Biofilm Assay (from about 10 to less than 30%))
- Reduce or Inhibit B Biofilm (dots: Disruption Biofilm Assay) ([3]; Table D, 0.1 to 5.0%): ● (Single dot [ie. ●] signifies little effect on the Disruption Biofilm Assay (from about 10 to less than 30%))
- Reduce or Inhibit B Biofilm (dots: Disruption Biofilm Assay) [3, 7]: ● (Single dot [ie. ●] signifies little effect on the Disruption Biofilm Assay (from about 10 to less than 30%))
- effect on bacterial biofilm (in words) (bacterial biofilm; in vitro testing): antibacterial biofilm effect
- effect on fungal biofilm (in words) (fungal biofilm; in vitro testing): antifungal biofilm effects

Structure (SMILES): N[C@@H](COP(=O)(O)O)C(=O)O [Phosphoserine, O-phospho-L-serine]
- Reduce or Inhibit F Biofilm (dots: Disruption Biofilm Assay) ([2]; Table D, 0.1 to 5.0%): ● (Single dot [ie. ●] signifies little effect on the Disruption Biofilm Assay (from about 10 to less than 30%))
- Reduce or Inhibit F Biofilm (dots: Disruption Biofilm Assay) [2, 7]: ● (Single dot [ie. ●] signifies little effect on the Disruption Biofilm Assay (from about 10 to less than 30%))
- Reduce or Inhibit B Biofilm (dots: Disruption Biofilm Assay) ([3]; Table D, 0.1 to 5.0%): ● (Single dot [ie. ●] signifies little effect on the Disruption Biofilm Assay (from about 10 to less than 30%))
- Reduce or Inhibit B Biofilm (dots: Disruption Biofilm Assay) [3, 7]: ● (Single dot [ie. ●] signifies little effect on the Disruption Biofilm Assay (from about 10 to less than 30%))
- Neutral (square: Inhibition Biofilm Assay) ([5]; Table D, Neutral = no effect on the biofilm): ▪ (Single square [ie. ▪] signifies little effect on the Inhibition Biofilm Assay (from about 10 to less than 30%))
- Neutral (square: Inhibition Biofilm Assay) [5, 6]: ▪ (Single square [ie. ▪] signifies little effect on the Inhibition Biofilm Assay (from about 10 to less than 30%))
- Neutral (square: Inhibition Biofilm Assay) [5, 7]: ▪ (Single square [ie. ▪] signifies little effect on the Inhibition Biofilm Assay (from about 10 to less than 30%))
- effect on bacterial biofilm (in words) (bacterial biofilm; in vitro testing): antibacterial biofilm effect
- effect on fungal biofilm (in words) (fungal biofilm; in vitro testing): antifungal biofilm effects

Structure (SMILES): CC(C)[C@H](N)C(=O)O [Valine, L-valine]
- Promote F Biofilm (dots: Disruption Biofilm Assay) [2, 6]: ● (Single dot [ie. ●] signifies little effect on the Disruption Biofilm Assay (from about 10 to less than 30%))
- Reduce or Inhibit B Biofilm (dots: Disruption Biofilm Assay) ([3]; Table D, 0.1 to 5.0%): ● (Single dot [ie. ●] signifies little effect on the Disruption Biofilm Assay (from about 10 to less than 30%))
- Reduce or Inhibit B Biofilm (dots: Disruption Biofilm Assay) [3, 7]: ● (Single dot [ie. ●] signifies little effect on the Disruption Biofilm Assay (from about 10 to less than 30%))
- effect on bacterial biofilm (in words) (bacterial biofilm; [8]): anti-bacterial biofilm effect
- effect on bacterial biofilm (in words) (bacterial biofilm; in the presence of a therapeutic concentration of glycerol, listed as valine): anti-bacterial biofilm effect became dominant
- effect on bacterial biofilm (in words) (bacterial biofilm; in vitro testing): anti-bacterial biofilm effect
- effect on fungal biofilm (in words) (fungal biofilm; [8]): lost its pro-fungal biofilm effect
- effect on fungal biofilm (in words) (fungal biofilm; in vitro testing): supported fungal biofilm formation; also recorded: pro-fungal biofilm effect; also recorded: promoted fungal biofilm formation
- effect on fungal biofilm (in words) (fungal biofilm; in vitro testing, listed as valine): supported the formation of biofilm made by biofilm-forming fungi
